Data on 5 molecules can be found in patent publication EP4417607A1, “HETEROCYCLIC COMPOUND AS SOS1 INHIBITOR AND USES THEREOF” (Nanjing Zaiming Pharmaceutical Co., Ltd., priority 2021, dated 2023).

The target in one test is T1, CYP3A4 (Homo sapiens, UniProt P08684).
T1 construct: Human liver microsome (Corning 452117); tissue Corning 452117; host or cells: human liver microsomes
The experiment in a line: CYP3A4 enzymatic activity inhibition in human liver microsomes. Format: in vitro ADME. The note with it: IC50, human liver microsome, substrate midazolam. Here is the method: (§1) The inhibition of CYP2C9, CYP2D6, and CYP3A4 enzymatic activity by the compound of the present invention was determined using the following method. • I. Experimental materials and instruments • 1. Human liver microsome (Corning 452117) • 2. Na2HPO4 (Sigma SLBZ6180) • 3. KH2PO4 (Sigma SLBT6559) • 4. NADPH (Solarbio 705Y021) • […] • 6. Positive substrates diclofenac (Sigma SLBV3438), dextromethorphan (TRC 3-EDO-175-1), and midazolam (Cerilliant FE01161704) • 7. Positive inhibitors sulfaphenazole (D. Ehrenstorfer GmbH 109012), quinidine (TCI WEODL-RE), and ketoconazole (Sigma 100M1091V) • 7. AB Sciex Triple Quad 5500 liquid chromatography-mass spectrometry system • II. Procedures • 1. Preparation of 100 mM phosphate-buffered saline (PBS): 7.098 g Na2HPO4 was weighed. 500 mL pure water was added. The mixture was dissolved by sonication to give solution A. 3.400 g KH2PO4 was weighed. 250 mL pure water was added. The mixture was dissolved by sonication to give solution B. The solution A was placed in a stirrer, and the solution B was slowly added until the pH reached 7.4 to prepare the 100 mM PBS buffer. • 2. A 10 mM NADPH solution was prepared with a 100 mM PBS buffer. A 10 mM stock solution of the compound of the present invention was diluted with DMSO to give a compound working solution at a concentration of 200× (6000, 2000, 600, 200, 60, 20, and 0 µM). The positive inhibitor stock solution was diluted with DMSO to give a positive inhibitor working solution at a concentration of 200× (sulfaphenazole, 1000, 300, 100, 30, 10, 3, and 0 µM; quinidine/ketoconazole, 100, 30, 10, 3, 1, 0.3, and 0 µM). Substrate working solutions (120 µM diclofenac, 400 µM dextromethorphan, and 200 µM midazolam) at a concentration of 200× were prepared with water, acetonitrile, or acetonitrile/methanol. • 3. […]
(§2) The values were calculated by Excel XLfit 5.3.1.3 to obtain IC50 values for the compounds of the present invention against CYP2C9, CYP2D6, and CYP3A4 as shown in Table 8. […]

Another test has as its target T2, CYP2D6 (Homo sapiens, UniProt P10635).
T2 construct: Human liver microsome (Corning 452117); tissue Corning 452117; host or cells: human liver microsomes
The test can be described thus: CYP2D6 enzymatic activity inhibition in human liver microsomes. Format: in vitro ADME. The note with it: IC50, human liver microsome, substrate dextromethorphan. The protocol: as §1, §2

Another test deals with H358 cells. The test can be described thus: H358 cell proliferation inhibition (CellTiter-Glo luminescent cell viability assay). Format: cell-based. The following applies: Homo sapiens, NCI-H358, 168 h, 7 days. The procedure, abridged: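 H358 cells seeded at 3000 cells/well in RPMI1640/10% FBS, treated with compound for 7 days at 37 °C/5% CO2. Viability read by CellTiter-Glo 3D luminescence, normalised to cell-free (100%) and compound-free (0%) controls; IC50 fitted from 8 concentrations by four-parameter curve.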

T2 sequence (P10635 whole entry): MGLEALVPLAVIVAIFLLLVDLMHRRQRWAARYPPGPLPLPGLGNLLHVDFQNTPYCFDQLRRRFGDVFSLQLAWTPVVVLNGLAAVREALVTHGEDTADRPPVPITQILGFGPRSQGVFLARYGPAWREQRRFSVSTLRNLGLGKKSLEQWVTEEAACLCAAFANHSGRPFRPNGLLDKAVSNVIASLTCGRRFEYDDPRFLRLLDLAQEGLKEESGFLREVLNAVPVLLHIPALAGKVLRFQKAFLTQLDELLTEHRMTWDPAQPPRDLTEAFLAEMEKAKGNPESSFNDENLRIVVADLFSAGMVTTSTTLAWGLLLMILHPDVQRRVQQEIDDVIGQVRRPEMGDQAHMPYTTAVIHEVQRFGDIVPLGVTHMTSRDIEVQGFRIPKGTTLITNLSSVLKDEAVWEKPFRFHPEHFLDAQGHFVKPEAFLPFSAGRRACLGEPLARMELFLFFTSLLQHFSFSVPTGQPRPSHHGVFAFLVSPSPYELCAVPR
T1 sequence (P08684 whole entry): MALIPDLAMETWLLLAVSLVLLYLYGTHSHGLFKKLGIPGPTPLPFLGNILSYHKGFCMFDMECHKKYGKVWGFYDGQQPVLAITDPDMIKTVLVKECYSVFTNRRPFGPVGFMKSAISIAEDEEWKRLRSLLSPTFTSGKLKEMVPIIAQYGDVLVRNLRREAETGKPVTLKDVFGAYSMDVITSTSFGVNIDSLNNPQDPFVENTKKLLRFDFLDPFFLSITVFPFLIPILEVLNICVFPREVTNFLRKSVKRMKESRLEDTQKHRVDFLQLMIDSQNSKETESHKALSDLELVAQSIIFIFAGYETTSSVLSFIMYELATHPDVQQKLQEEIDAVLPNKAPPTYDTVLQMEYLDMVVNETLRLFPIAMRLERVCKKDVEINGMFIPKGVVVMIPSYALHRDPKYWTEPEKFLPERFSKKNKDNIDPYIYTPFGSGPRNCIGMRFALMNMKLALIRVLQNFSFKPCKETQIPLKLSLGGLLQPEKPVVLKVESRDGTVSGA

Take `[2H][C@](C)(Nc1nc(C)nc2c(N3CCOCC3)c(=O)n(C3(CF)CC3)cc12)c1cccc(C(F)F)c1F` [Example 55, (R)-4-((1-(3-(difluoromethyl)-2-fluorophenyl)ethyl-1-d)amino)-6-(1-(fluoromethyl)cyclopropyl)-2-methyl-8-morpholinylpyrido[4,3-d]pyrimidine-7(6H)-one]: the half-maximal inhibitory concentration (IC50) against CYP3A4 is above 30 µM; at CYP2D6, above 30 µM; in the test with H358 cells, 0.0243 µM.
`Cc1nc(N[C@H](C)c2cccc(C(F)F)c2F)c2cn(C3(CF)CC3)c(=O)c(N3CCOC[C@@H]3C)c2n1` [Example 40, 4-(((R)-1-(3-(difluoromethyl)-2-fluorophenyl)ethyl)amino)-6-(1-(fluoromethyl)cyclopropyl)-2-methyl-8-((S)-3-methylmorpholine)pyrido[4,3-d]pyrimidine-7(6H)-one]: the half-maximal inhibitory concentration (IC50) against CYP3A4 is above 30 µM; on CYP2D6, above 30 µM; in the test with H358 cells, 0.0142 µM.
Regarding `Cc1nc(N[C@H](C)c2cccc(C(F)F)c2F)c2cn(C3(CF)CC3)c(=O)c(N3CCOCC3)c2n1` [Example 34, (R)-4-((1-(3-(difluoromethyl)-2-fluorophenyl)ethyl)amino)-6-(1-(fluoromethyl)cyclopropyl)-2-methyl-8-morpholinylpyrido[4,3-d]pyrimidine-7(6H)-one], in the test on H358 cells, the 50% inhibitory concentration (IC50) is 0.0123 µM.
On the same count and under the same terms, next, `COc1c(=O)n(N2CCOCC2)cc2c(N[C@H](C)c3cccc(C(F)F)c3F)nc(C)nc12` [Example 20, (R)-4-((1-(3-(difluoromethyl)-2-fluorophenyl)ethyl)amino)-8-methoxy-2-methyl-6-morpholinepyrido[4,3-d]pyrimidine-7(6H)-one]: 0.0982 µM.
Take `[2H]C([2H])([2H])Oc1c(=O)n(C2(CF)CC2)cc2c(N[C@H](C)c3cccc(C(F)F)c3F)nc(C)nc12` [Example 23, (R)-4-((1-(3-(difluoromethyl)-2-fluorophenyl)ethyl)amino)-6-(1-(fluoromethyl)cyclopropyl)-8-(methoxy-d3)-2-methylpyrido[4,3-d]pyrimidine-7(6H)-one]: the IC50 against CYP3A4 is above 30 µM; against CYP2D6, above 30 µM; in the test with H358 cells it was 0.119 µM.
